This is an account of results in patent US7772260B2, “Imidazo[2,1-b]-1,3,4-thiadiazole sulfonamides” (Aegera Therapeutics Inc., priority 2001, dated 2010).

One test deals with CA II (Homo sapiens, UniProt P00918). As to the kind of experiment: CA II inhibition. Type of test: biochemical. As for the experimental part:
CA II inhabition was measured using the protocol described by Pocker, Y.'Stone, J. Biochemistry 1967, 6, 668.

The test system of a further test is SCG neurons. The test can be described thus: cells. The class given is cell-based, Sprague Dawley rats. To be noted: Rattus norvegicus, Neuron. On the procedure: Taxol™ is regularly used in breast cancer chemotherapy. In cancer cells Taxol™ binds to the cyto-skeletal protein tubulin, thereby inhibiting normal microtubular assembly and inducing cellular apoptosis. Despite its potency as an anti-tumour agent, Taxol™ is also toxic to neurons, inducing dose limiting peripheral neuropathies. The addition of Taxol™ (100 ng/mL) to cultured SCG neurons induces the degradation or loss of upwards of 80% of the neurons.
FIG. 1 illustrates the protection provided by compound 1 (referred to here as AEG3482) against Taxol™ induced killing. PI Sprague Dawley rat SCG neurons were cultured and incubated with NGF (50 ng/mL) for 5 days.

Where [1] appears, read: read-out: IC(50), CA II inhibition.
The mark [2] stands for this setting: Taxol™ (50 ng/mL), viability 48 hours later, MTS, read-out: IC(50), protection of SCG neurons from Taxol killing.

Where a name gives a salt, the structure may show the parent alone. Read-outs that look alike come from different tables or passages of the source. Bounds are passed on as bounds.

For the molecule `NS(=O)(=O)c1nn2cc(-c3ccc(C(=O)O)cc3)nc2s1` [Compound 39], the IC50 on CA II (setting [1]) came out at 0.154 µM.

Regarding `NS(=O)(=O)c1nn2cc(-c3ccc(F)cc3)nc2s1` [Compound 4, 6-(4-Fluorophenyl)imidazo[2,1-b]-1,3,4-thiadiazole-2-sulfonamide], the IC50 is 5 µM in the test on SCG neurons (setting [2]) and 0.217 µM at CA II (setting [1]).

Regarding `COc1ccc(OC)c(-c2cn3nc(S(N)(=O)=O)sc3n2)c1` [Compound 18, 6-(2,5-Dimethoxyphenyl)imidazo[2,1-b]-1,3,4-thiadiazole-2-sulfonamide], the values for the IC50 with SCG neurons (setting [2]) and at CA II (setting [1]) were 20 µM and 0.337 µM, respectively.

Consider `NS(=O)(=O)c1nn2cc(-c3cccc(OC(F)(F)F)c3)nc2s1` [Compound 24, 6-(3-trifloromethoxyphenyl)imidazo[2,1-b]-1,3,4-thiadiazole-2-sulfonamide], for which the IC50 in the test with SCG neurons (setting [2]) came to 7 µM; on CA II (setting [1]), 0.613 µM.

`NS(=O)(=O)c1nn2cc(-c3ccc(Cl)c(Cl)c3)nc2s1` [Compound 11, 6-(3,4-Dichlorophenyl)imidazo[2,1-b]-1,3,4-thiadiazole-2-sulfonamide]: the IC50 with SCG neurons (setting [2]) was determined as 3 µM; at CA II (setting [1]), 1.8 µM.

Turning to `CCCCCc1ccc(-c2cn3nc(S(N)(=O)=O)sc3n2)cc1` [Compound 46, 6-(4-Pentylphenyl)imidazo[2,1-b]-1,3,4-thiadiazole-2-sulfonamide], the IC50 is 7 µM in the test on SCG neurons (setting [2]) and 0.601 µM on CA II (setting [1]).

Turning to `NS(=O)(=O)c1nn2cc(-c3ccc(Cl)c([N+](=O)[O-])c3)nc2s1` [Compound 38, 6-(3-nitro-4-chlorophenyl)imidazo[2,1-b]-1,3,4-thiadiazole-2-sulfonamide], the IC50 was 3 µM in the test on SCG neurons (setting [2]) and 0.577 µM on CA II (setting [1]).

`CCCCN(CCCC)S(=O)(=O)c1nn2cc(-c3cccc(OC)c3)nc2s1` [Compound 142, 6-(3-Methoxyphenyl)imidazo[2,1-b]-1,3,4-thiadiazole-2-N,N-dibutylsulfonamide]: the IC50 is more than 30 µM in the test with SCG neurons (setting [2]) and 60.3 µM at CA II (setting [1]).

Turning to `NS(=O)(=O)c1nn2cc(-c3ccccn3)nc2s1` [Compound 105, 6-(2-Pyridyl)imidazo[2,1-b]-1,3,4-thiadiazole-2-sulfonamide], the figures for the IC50 in the test with SCG neurons (setting [2]) and at CA II (setting [1]) were 7 µM and 0.15 µM, respectively.

`N#Cc1ccc(-c2cn3nc(S(N)(=O)=O)sc3n2)cc1` [Compound 42, 6-(4-cyanophenyl)imidazo[2,1-b]-1,3,4-thiadiazole-2-sulfonamide]: the figures for the IC50 in the test with SCG neurons (setting [2]) and at CA II (setting [1]) were 3 µM and 0.272 µM, respectively.

For `CS(=O)(=O)c1ccc(-c2cn3nc(S(N)(=O)=O)sc3n2)cc1` [Compound 43, 6-(4-(methylsulfonyl)phenyl)imidazo[2,1-b]-1,3,4-thiadiazole-2-sulfonamide], the IC50 at CA II (setting [1]) turned out to be 0.886 µM.

Turning to `CN(C)S(=O)(=O)c1nn2cc(-c3ccccc3)nc2s1` [Compound 139, 6-Phenyl-imidazo[2,1-b]-1,3,4-thiadiazole-2-N,N-dimethylsulfonamide], the IC50 in the test on SCG neurons (setting [2]) was 10 µM; at CA II (setting [1]) it was 11.3 µM.

As to `NS(=O)(=O)c1nn2cc(-c3ccc(Br)cc3)nc2s1` [Compound 14, 6-(4-Bromophenyl)-imidazo[2,1-b]-1,3,4-thiadiazole-2-sulfonamide], the IC50 in the test on SCG neurons (setting [2]) worked out at 5 µM; at CA II (setting [1]) it was 0.198 µM.

For `CC(C)(C)c1cc(-c2cn3nc(S(N)(=O)=O)sc3n2)c2c(c1)C(C)(C)CC2` [Compound 50], the IC50 with SCG neurons (setting [2]) stood at 7 µM; on CA II (setting [1]), 0.938 µM.

`CC(C)(C)c1ccc(-c2cn3nc(S(N)(=O)=O)sc3n2)cc1` [Compound 49, 6-(4-tert-butylphenyl)imidazo[2,1-b]-1,3,4-thiadiazole-2-sulfonamide]: the IC50 was found to be 5 µM in the test on SCG neurons (setting [2]) and 0.466 µM at CA II (setting [1]).

`NS(=O)(=O)c1nn2cc(-c3cccc(Br)c3)nc2s1` [Compound 13, 6-(3-bromophenyl)imidazo[2,1-b]-1,3,4-thiadiazole-2-sulfonamide]: the figures for the IC50 in the test with SCG neurons (setting [2]) and at CA II (setting [1]) were 7 µM and 4.05 µM, respectively.

Consider `CNS(=O)(=O)c1nn2cc(-c3ccccc3)nc2s1` [Compound 137, 6-Phenyl-imidazo[2,1-b]-1,3,4-thiadiazole-2-N-methylsulfonamide], for which the IC50 was 10 µM in the test on SCG neurons (setting [2]), 7 µM in the test with SCG neurons (read-out: IC(50) against Taxol killing of SCGs) and 2.06 µM at CA II (read-out: CAII(50) / CAII IC(50)). Besides, the “decrease in CAII activity relative to compound 1” value at CA II (compound 137 versus compound 1) was 100 fold.

As for `NS(=O)(=O)c1nn2cc(-c3ccc4c(c3)OCO4)nc2s1` [Compound 20, 6-(1,3-Benzodioxol-5-yl)imidazo[2,1-b]-1,3,4-thiadiazole-2-sulfonamide], the IC50 in the test with SCG neurons (setting [2]) was 15 µM; at CA II (setting [1]) it was 0.404 µM.

Consider `CCN(CC)S(=O)(=O)c1ccc(-c2cn3nc(S(N)(=O)=O)sc3n2)cc1` [Compound 45], for which, on CA II (setting [1]), the IC50 turned out to be 0.166 µM.

`COc1ccc(-c2cn3nc(S(N)(=O)=O)sc3n2)c(OC)c1` [Compound 19, 6-(2,4-Dimethoxyphenyl)imidazo[2,1-b]-1,3,4-thiadiazole-2-sulfonamide]: the IC50 in the test with SCG neurons (setting [2]) is 15 µM; on CA II (setting [1]) it was 0.373 µM.

On to `NS(=O)(=O)c1nn2cc(-c3cccc([N+](=O)[O-])c3)nc2s1` [Compound 37, 6-(3-Nitrophenyl)imidazo[2,1-b]-1,3,4-thiadiazole-2-sulfonamide], for which the IC50 with SCG neurons (setting [2]) worked out at 10 µM; at CA II (setting [1]) it was 0.199 µM.

With `Cc1ccc(-c2cn3nc(S(N)(=O)=O)sc3n2)cc1` [Compound 47, 6-(4-Methylphenyl)imidazo[2,1-b]-1,3,4-thiadiazole-2-sulfonamide], the IC50 in the test with SCG neurons (setting [2]) was determined as 6 µM; at CA II (setting [1]), 0.361 µM.

For the molecule `NS(=O)(=O)c1nn2cc(-c3ccc(O)c(O)c3)nc2s1` [Compound 22], the IC50 in the test with SCG neurons (setting [2]) is 25 µM; on CA II (setting [1]), 0.153 µM.

Take `CCSc1c(F)c(F)c(-c2cn3nc(S(N)(=O)=O)sc3n2)c(F)c1F` [Compound 7, 6-(4-Ethylthio-2,3,5,6-tetrafluorophenyl)imidazo[2,1-b]-1,3,4-thiadiazole-2-sulfonamide]: the IC50 in the test on SCG neurons (setting [2]) stood at 4 µM; on CA II (setting [1]) it was 0.581 µM.

`CN(C)S(=O)(=O)c1nn2cc(-c3ccc4ccccc4c3)nc2s1` [Compound 147, 6-(2-Naphthyl)imidazo[2,1-b]-1,3,4-thiadiazole-2-N,N-dimethylsulfonamide]: the IC50 in the test on SCG neurons (setting [2]) was found to be 17 µM.

For `COCCOCCOc1ccc(-c2cn3nc(S(N)(=O)=O)sc3n2)cc1` [Compound 30], the IC50 in the test with SCG neurons (setting [2]) stood at 10 µM.

On to `COc1ccc(-c2cn3nc(S(N)(=O)=O)sc3n2)cc1` [Compound 17, 6-(4-Methoxyphenyl)imidazo[2,1-b]-1,3,4-thiadiazole-2-sulfonamide], for which the IC50 with SCG neurons (setting [2]) is 3 µM; at CA II (setting [1]), 0.179 µM.

As to `CCN(CC)S(=O)(=O)c1nn2cc(-c3cccc(OC)c3)nc2s1` [Compound 141], the IC50 with SCG neurons (setting [2]) was more than 30 µM.

For the molecule `COC(=O)COc1ccc(-c2cn3nc(S(N)(=O)=O)sc3n2)cc1` [Compound 101], in the test with SCG neurons (setting [2]), the IC50 was more than 30 µM.

`COc1ccc2ccc(-c3cn4nc(S(N)(=O)=O)sc4n3)cc2c1Br` [Compound 63, 6-(8-Bromo-7-methoxylnaphth-2-yl)imidazo[2,1-b]-1,3,4-thiadiazole-2-sulfonamide]: the IC50 in the test with SCG neurons (setting [2]) was found to be 7 µM.

On to `N#Cc1cccc(-c2cn3nc(S(N)(=O)=O)sc3n2)c1` [Compound 41, 6-(3-cyanophenyl)imidazo[2,1-b]-1,3,4-thiadiazole-2-sulfonamide], for which the IC50 was found to be 3 µM in the test with SCG neurons (setting [2]) and 0.346 µM on CA II (setting [1]).

Regarding `NS(=O)(=O)c1nn2cc(-c3ccc(-c4ccccc4)s3)nc2s1` [Compound 113, 6-(5-Phenylthiophen-2-yl)-imidazo[2,1-b]-1,3,4-thiadiazole-2-sulfonamide], in the test with SCG neurons (setting [2]), the IC50 worked out at 7 µM.

As to `NS(=O)(=O)c1nn2cc(-c3cccs3)nc2s1` [Compound 112, 6-(2-Thiophenyl)-imidazo[2,1-b]-1,3,4-thiadiazole-2-sulfonamide], in the test on SCG neurons (setting [2]), the IC50 turned out to be 5 µM.

Take `NS(=O)(=O)c1nn2c(Br)c(-c3ccccn3)nc2s1` [Compound 125, 5-Bromo-6-(2-pyridyl)imidazo[2,1-b]-1,3,4-thiadiazole-2-sulfonamide hydrobromide]: the IC50 in the test with SCG neurons (setting [2]) came to 3 µM.

Regarding `Nc1nnc(Sc2c(-c3ccc4ccccc4c3)nc3sc(S(N)(=O)=O)nn23)s1` [Compound 136], the IC50 in the test with SCG neurons (setting [2]) was found to be 5 µM.

Consider `NS(=O)(=O)c1nn2cc(C34CC5CC(CC(C5)C3)C4)nc2s1` [Compound 60, 6-(1-adamantyl)imidazo[2,1-b]-1,3,4-thiadiazole-2-sulfonamide], for which the IC50 in the test with SCG neurons (setting [2]) was 25 µM.

Take `CN(C)S(=O)(=O)c1nn2cc(-c3ccc(Br)cc3)nc2s1` [Compound 143, 6-(4-Bromophenyl)imidazo[2,1-b]-1,3,4-thiadiazole-2-N,N-dimethylsulfonamide]: the IC50 in the test on SCG neurons (setting [2]) amounted to 10 µM.

`CN(C)S(=O)(=O)c1nn2cc(-c3c(F)c(F)c(F)c(F)c3F)nc2s1` [Compound 140, 6-(2,3,4,5,6-pentafluorophenyl)imidazo[2,1-b]-1,3,4-thiadiazole-2-N,N-dimethylsulfonamide]: the IC50 with SCG neurons (setting [2]) was 5 µM.

On to `Cc1cc2c(cc1-c1cn3nc(S(N)(=O)=O)sc3n1)C(C)(C)CCC2(C)C` [Compound 57], for which the IC50 in the test on SCG neurons (48 h, read-out: IC(50), protection of SCG neurons from Taxol killing) worked out at 6 µM.

Consider `Cc1c(-c2cn3nc(S(N)(=O)=O)sc3n2)sc2ccccc12` [Compound 115, 6-(3-Methylbenzo[b]thiophen-2-yl)imidazo[2,1-b]-1,3,4-thiadiazole-2-sulfonamide], for which the IC50 with SCG neurons (setting [2]) was determined as 7 µM.
